Test results as given in ChEMBL document CHEMBL5465560, “Selectivity Literature for EUbOPEN Chemogenomic Library” (2024).
Values belong to the compound of their own block, whether it stands above or below them.

Experiments:
[1] = biological target: T1, SNF-related serine/threonine-protein kinase (Homo sapiens) (UniProt Q9NRH2); assay: Selectivity interaction (ActivX KiNativ screen (kinase selectivity in THP-1 cell lysates)) EUB0000639a SNRK; type: subcellular; details: lysate, at 0.2 µM
T1 sequence (whole entry): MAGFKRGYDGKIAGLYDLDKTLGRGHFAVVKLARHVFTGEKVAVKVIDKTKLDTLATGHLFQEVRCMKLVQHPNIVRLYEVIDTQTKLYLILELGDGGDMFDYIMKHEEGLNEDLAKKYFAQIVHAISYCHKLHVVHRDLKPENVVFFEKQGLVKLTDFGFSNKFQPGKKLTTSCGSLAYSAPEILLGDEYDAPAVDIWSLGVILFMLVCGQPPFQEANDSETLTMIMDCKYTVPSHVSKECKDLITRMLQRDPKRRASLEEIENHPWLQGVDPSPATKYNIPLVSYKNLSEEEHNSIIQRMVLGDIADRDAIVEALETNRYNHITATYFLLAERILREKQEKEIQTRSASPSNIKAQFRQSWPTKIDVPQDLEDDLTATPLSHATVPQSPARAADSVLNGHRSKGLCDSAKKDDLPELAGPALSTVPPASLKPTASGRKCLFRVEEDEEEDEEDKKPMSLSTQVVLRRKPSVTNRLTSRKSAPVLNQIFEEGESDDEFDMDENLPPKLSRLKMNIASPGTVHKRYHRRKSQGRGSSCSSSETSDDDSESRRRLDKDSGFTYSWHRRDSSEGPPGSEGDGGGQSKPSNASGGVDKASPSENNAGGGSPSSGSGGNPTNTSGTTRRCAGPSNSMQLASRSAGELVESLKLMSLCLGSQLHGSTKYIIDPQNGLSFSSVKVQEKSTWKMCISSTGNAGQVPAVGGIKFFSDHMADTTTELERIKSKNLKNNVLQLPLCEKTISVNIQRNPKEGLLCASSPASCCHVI

[2] = biological target: Insulin-like growth factor 1 receptor (Homo sapiens, UniProt P08069); assay: Selectivity interaction (KinomeScan (DiscoverX)) EUB0000229b IGF1R; details: at 10 µM
[3] = biological target: T2, Tyrosine-protein kinase ITK/TSK (Homo sapiens) (UniProt Q08881); assay: Selectivity interaction (Upstate Kinase Profiler service (Millipore)) EUB0000056c ITK; details: at 1 µM
T2 sequence (whole entry): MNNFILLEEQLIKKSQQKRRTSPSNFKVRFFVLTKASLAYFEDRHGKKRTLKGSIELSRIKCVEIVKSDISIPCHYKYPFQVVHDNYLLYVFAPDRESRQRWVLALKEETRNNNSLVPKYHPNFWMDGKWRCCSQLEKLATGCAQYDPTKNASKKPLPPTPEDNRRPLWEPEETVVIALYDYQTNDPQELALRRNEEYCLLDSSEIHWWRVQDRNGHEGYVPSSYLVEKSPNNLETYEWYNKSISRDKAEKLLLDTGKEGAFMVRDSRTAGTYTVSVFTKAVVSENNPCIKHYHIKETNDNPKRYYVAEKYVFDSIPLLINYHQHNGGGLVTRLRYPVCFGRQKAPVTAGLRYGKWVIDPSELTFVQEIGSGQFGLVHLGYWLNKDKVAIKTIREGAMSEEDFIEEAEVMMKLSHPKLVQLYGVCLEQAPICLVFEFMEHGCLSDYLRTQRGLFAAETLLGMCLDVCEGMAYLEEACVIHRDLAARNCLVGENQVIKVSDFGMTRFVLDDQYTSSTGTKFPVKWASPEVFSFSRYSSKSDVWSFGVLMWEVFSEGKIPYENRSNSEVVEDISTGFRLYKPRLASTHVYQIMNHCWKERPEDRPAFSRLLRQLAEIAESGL

[4] = biological target: T3, Serine/threonine-protein kinase D2 (Homo sapiens) (UniProt Q9BZL6); assay: Selectivity interaction (KinomeScan (DiscoverX)) EUB0000655a PRKD2; details: at 10 µM
T3 sequence (whole entry): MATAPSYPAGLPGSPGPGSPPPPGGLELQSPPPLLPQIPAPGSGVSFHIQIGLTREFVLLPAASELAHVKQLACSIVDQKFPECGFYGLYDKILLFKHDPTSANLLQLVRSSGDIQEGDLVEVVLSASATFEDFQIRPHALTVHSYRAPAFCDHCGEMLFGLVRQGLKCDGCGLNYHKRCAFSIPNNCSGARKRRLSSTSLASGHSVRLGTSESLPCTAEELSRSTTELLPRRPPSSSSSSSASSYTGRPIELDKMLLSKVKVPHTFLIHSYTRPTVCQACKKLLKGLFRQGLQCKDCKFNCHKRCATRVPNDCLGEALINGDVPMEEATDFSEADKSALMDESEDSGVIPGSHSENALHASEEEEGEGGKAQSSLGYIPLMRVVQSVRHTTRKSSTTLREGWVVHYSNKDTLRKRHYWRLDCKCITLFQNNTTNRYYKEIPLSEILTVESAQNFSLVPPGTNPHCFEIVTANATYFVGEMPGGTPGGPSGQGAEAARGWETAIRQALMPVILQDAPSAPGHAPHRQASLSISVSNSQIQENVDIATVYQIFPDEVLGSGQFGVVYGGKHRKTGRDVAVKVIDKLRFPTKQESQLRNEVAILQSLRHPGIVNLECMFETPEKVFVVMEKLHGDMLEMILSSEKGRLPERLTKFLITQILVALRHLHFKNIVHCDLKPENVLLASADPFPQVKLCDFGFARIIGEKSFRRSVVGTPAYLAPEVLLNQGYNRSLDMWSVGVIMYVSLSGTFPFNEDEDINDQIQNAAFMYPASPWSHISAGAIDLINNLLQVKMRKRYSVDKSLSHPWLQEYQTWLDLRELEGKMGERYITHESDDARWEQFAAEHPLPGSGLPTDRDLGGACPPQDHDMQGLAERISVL

[5] = biological target: Glycogen synthase kinase-3 alpha (Homo sapiens, UniProt P49840); assay: Selectivity interaction (ActivX KiNativ screen (ex vivo kinase selectivity in human PBMCs)) EUB0001619a GSK3A; type: cell-based; details: PBMC, at 1 µM
[6] = biological target: Dual specificity mitogen-activated protein kinase kinase 1 (Homo sapiens, UniProt Q02750); assay: Selectivity interaction (KinomeScan (DiscoverX)) EUB0000618a MAP2K1; details: at 10 µM
Chain of Dual specificity mitogen-activated protein kinase kinase 1 (Q02750 whole entry): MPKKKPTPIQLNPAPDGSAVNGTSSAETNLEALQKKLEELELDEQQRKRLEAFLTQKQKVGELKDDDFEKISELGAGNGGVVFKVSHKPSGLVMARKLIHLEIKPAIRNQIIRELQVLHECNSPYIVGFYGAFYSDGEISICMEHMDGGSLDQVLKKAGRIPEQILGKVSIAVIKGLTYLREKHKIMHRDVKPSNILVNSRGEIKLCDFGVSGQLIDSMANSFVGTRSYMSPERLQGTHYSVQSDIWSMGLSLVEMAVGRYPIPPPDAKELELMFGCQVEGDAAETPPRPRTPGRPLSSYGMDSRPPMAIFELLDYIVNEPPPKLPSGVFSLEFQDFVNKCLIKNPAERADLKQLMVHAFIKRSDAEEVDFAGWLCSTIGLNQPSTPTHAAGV

Chain of Glycogen synthase kinase-3 alpha (P49840 2-483 limits assumed): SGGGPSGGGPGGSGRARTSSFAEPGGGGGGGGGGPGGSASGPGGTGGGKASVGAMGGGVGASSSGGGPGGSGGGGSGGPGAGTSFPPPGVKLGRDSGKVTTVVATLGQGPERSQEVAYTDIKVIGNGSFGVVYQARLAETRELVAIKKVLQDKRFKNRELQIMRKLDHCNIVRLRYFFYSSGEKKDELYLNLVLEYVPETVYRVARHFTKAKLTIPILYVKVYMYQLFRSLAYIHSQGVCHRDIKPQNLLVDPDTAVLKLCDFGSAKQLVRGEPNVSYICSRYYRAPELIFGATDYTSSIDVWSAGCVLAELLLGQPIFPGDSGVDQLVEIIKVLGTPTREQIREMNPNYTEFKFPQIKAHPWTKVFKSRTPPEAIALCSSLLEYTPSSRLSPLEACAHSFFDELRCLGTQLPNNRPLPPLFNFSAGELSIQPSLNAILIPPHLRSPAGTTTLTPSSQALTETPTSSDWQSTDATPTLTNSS
Chain of Insulin-like growth factor 1 receptor (P08069 31-736 limits assumed): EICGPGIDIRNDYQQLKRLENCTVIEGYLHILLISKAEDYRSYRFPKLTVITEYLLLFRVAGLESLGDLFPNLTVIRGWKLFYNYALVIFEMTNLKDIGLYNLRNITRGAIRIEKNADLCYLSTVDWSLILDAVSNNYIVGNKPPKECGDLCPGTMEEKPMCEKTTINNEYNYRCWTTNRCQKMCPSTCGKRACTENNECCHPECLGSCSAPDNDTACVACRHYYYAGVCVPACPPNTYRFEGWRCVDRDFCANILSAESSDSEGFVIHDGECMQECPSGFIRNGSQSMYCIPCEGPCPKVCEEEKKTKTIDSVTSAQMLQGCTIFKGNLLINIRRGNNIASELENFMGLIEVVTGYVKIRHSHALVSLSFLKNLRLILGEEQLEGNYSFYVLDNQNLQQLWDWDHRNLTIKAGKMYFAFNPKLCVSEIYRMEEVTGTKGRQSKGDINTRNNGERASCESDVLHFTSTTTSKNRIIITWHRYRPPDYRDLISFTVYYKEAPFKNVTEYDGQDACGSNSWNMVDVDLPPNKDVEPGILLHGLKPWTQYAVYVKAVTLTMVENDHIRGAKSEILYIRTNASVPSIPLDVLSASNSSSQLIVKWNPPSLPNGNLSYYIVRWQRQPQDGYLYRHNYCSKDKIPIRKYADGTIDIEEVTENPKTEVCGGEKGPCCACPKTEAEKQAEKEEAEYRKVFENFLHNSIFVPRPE
Chain of Insulin-like growth factor 1 receptor (P08069 741-1367 limits assumed): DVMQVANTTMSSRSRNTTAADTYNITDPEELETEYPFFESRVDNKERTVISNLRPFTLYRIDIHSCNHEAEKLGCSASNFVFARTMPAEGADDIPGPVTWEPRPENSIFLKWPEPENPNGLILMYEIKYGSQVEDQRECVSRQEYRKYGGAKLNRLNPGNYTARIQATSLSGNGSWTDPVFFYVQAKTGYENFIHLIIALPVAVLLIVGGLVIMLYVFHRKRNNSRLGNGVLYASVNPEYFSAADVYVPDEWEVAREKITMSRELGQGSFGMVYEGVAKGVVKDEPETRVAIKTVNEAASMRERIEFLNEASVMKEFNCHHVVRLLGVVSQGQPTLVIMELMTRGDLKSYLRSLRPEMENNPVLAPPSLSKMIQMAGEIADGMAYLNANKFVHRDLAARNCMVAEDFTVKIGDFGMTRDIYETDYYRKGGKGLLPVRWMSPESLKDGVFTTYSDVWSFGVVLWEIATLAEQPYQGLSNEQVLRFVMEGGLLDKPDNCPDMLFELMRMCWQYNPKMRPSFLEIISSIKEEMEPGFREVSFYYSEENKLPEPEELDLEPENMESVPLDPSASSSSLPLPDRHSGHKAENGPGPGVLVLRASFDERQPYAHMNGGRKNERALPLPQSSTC

% of inhibition [1]: 8.5%
Structure (SMILES): CC[C@@H]1[C@H](F)C(=O)N[C@@H]1COc1nccc2cc(C(N)=O)c(OC)cc12 [ZIMLOVISERTIB]

Structure (SMILES): COc1cc(N(C)c2ccnc3ccc(C(F)(F)F)cc23)cc(OC)c1OC
% binding [2]: 93%

% of inhibition [3]: -1%
Structure (SMILES): Cc1ccc(-c2ccc3c(ccc4sc5c(c43)NC[C@@H](C)NC5=O)n2)cn1

Structure (SMILES): CN(C)CCOc1ccc(-c2nc(-c3ccncc3)c(-c3ccc4c(c3)CC/C4=N\O)[nH]2)cc1
% of control [4]: 80%

Structure (SMILES): N#Cc1cccc(-c2c[nH]c3ncnc(N4CCOCC4)c23)c1
% of inhibition [5]: 7%

Structure (SMILES): O[C@H]1CC[C@H](Nc2ncc3nc(Nc4c(F)cc(F)cc4F)n([C@H]4CCOC4)c3n2)CC1
% of control [6]: 100%
